Experimental data taken from the supplement of paper PMC10307832.

Legend:
Experiment in all cases: relative viability (nuclei count vs DMSO), 5 days (fraction); higher = more cells survive
[1] = compound: CN1C=C(C2=CC=CC=C21)/C=C\3/C4=C(C=CC=N4)NC3=O + C[C@@H](Oc1cc(-c2cnn(C3CCNCC3)c2)cnc1N)c1c(Cl)ccc(F)c1Cl [Crizotinib] (partner 1 µM)
Outline: (§1)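 Relative viability is defined as nuclei in treated wells over nuclei in vehicle wells. Duplicate plates were run and medians reported. Lung cancer cell lines in 1536-well plates were dosed by pin tool one day after seeding, with one drug or with a fixed anchor-drug dose plus five library-drug doses (not always all listed) in √10 steps, and nuclei were counted after 5 days.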

Trametinib + Pemetrexed = compound: CC(=O)Nc1cccc(-n2c(=O)n(C3CC3)c(=O)c3c(Nc4ccc(I)cc4F)n(C)c(=O)c(C)c32)c1 [Trametinib] + Nc1nc2[nH]cc(CCc3ccc(C(=O)N[C@@H](CCC(=O)O)C(=O)O)cc3)c2c(=O)[nH]1 [Pemetrexed] (partner 0.2 µM)
Outline: as §1

[2] = compound: CN1C=C(C2=CC=CC=C21)/C=C\3/C4=C(C=CC=N4)NC3=O + CCNC(=O)c1noc(-c2cc(C(C)C)c(O)cc2O)c1-c1ccc(CN2CCOCC2)cc1 [Luminespib] (partner 0.01 µM)
Outline: as §1

Trametinib + Dasatinib = compound: CC(=O)Nc1cccc(-n2c(=O)n(C3CC3)c(=O)c3c(Nc4ccc(I)cc4F)n(C)c(=O)c(C)c32)c1 [Trametinib] + Cc1nc(Nc2ncc(C(=O)Nc3c(C)cccc3Cl)s2)cc(N2CCN(CCO)CC2)n1 [Dasatinib] (partner 0.075 µM)
Outline: as §1

| Cell Line | relative viability ([1]; first compound 0.02 µM) | relative viability ([1]; first compound 0.06325 µM) | relative viability ([1]; first compound 0.2 µM) | relative viability ([1]; first compound 0.6325 µM) | relative viability ([1]; first compound 2 µM) | relative viability (Trametinib + Pemetrexed; first compound 0.0025 µM) | relative viability (Trametinib + Pemetrexed; first compound 0.007906 µM) | relative viability (Trametinib + Pemetrexed; first compound 0.025 µM) | relative viability (Trametinib + Pemetrexed; first compound 0.07906 µM) | relative viability (Trametinib + Pemetrexed; first compound 0.25 µM) | relative viability ([2]; first compound 0.02 µM) | relative viability ([2]; first compound 0.06325 µM) | relative viability ([2]; first compound 0.2 µM) | relative viability ([2]; first compound 0.6325 µM) | relative viability ([2]; first compound 2 µM) | relative viability (Trametinib + Dasatinib; first compound 0.0025 µM) | relative viability (Trametinib + Dasatinib; first compound 0.007906 µM) | relative viability (Trametinib + Dasatinib; first compound 0.025 µM) | relative viability (Trametinib + Dasatinib; first compound 0.07906 µM) | relative viability (Trametinib + Dasatinib; first compound 0.25 µM) |
| --- | --- | --- | --- | --- | --- | --- | --- | --- | --- | --- | --- | --- | --- | --- | --- | --- | --- | --- | --- | --- |
| NCI-H1563 | 0.871 | 0.897 | 0.736 | 0.893 | 0.971 | 0.787 | 0.755 | 0.574 | 0.669 | 0.657 | 0.506 | 0.537 | 0.541 | 0.483 | 0.464 | 0.466 | 0.509 | 0.467 | 0.438 | 0.464 |
| NCI-H2087 | 0.96 | 0.701 | 1.1 | 0.889 | 0.868 | 0.554 | 0.642 | 0.468 | 0.179 | 0.281 | 0.173 | 0.175 | 0.197 | 0.151 | 0.154 | 0.366 | 0.236 | 0.117 | 0.127 | 0.156 |
| NCI-H322M | 0.827 | 0.841 | 0.876 | 0.902 | 0.933 | 0.581 | 0.556 | 0.544 | 0.417 | 0.435 | 0.812 | 0.76 | 0.798 | 0.946 | 0.929 | 0.239 | 0.239 | 0.247 | 0.266 | 0.284 |
| NCI-H1734 | 0.665 | 0.677 | – | 0.696 | 0.744 | 0.418 | 0.383 | – | 0.387 | 0.355 | 0.212 | 0.208 | – | 0.203 | 0.866 | 0.54 | 0.592 | 0.399 | 0.56 | 0.387 |
| NCI-H2228 | 0.386 | 0.489 | – | 0.373 | 0.425 | 0.369 | 0.301 | 0.339 | 0.295 | 0.208 | 0.214 | 0.0886 | – | – | 0.132 | 0.44 | 0.36 | 0.348 | 0.237 | 0.143 |
| EKVX | 0.835 | 0.927 | 0.913 | 0.792 | 0.876 | 0.345 | 0.381 | 0.402 | 0.312 | 0.358 | 0.79 | 0.784 | 0.821 | 0.865 | 0.868 | 0.398 | 0.492 | 0.31 | 0.226 | 0.221 |
| NCI-H596 | 0.932 | 1.01 | 0.936 | 0.89 | 0.891 | 0.475 | 0.445 | 0.477 | 0.546 | 0.426 | 1 | 1.01 | 0.858 | 0.93 | 0.866 | 0.533 | 0.535 | 0.495 | 0.487 | 0.303 |
| NCI-H1975 | 0.749 | 0.939 | 0.915 | 0.817 | 0.796 | 0.326 | 0.284 | 0.246 | 0.249 | 0.226 | 0.0911 | 0.261 | 0.187 | 0.338 | 0.206 | 0.28 | 0.218 | 0.15 | 0.172 | 0.123 |
| NCI-H2170 | – | 1.13 | 1.35 | 1.16 | 1.15 | 0.281 | 0.267 | – | 0.271 | 0.237 | 0.623 | 0.616 | 0.626 | 0.778 | 0.738 | 0.56 | 0.476 | 0.37 | 0.347 | 0.416 |
